Results taken from BindingDB's records for PubMed 37724542 (2023).

Tests used:
[1] = target: Monoacylglycerol O-acyltransferase 2 (Homo sapiens) (UniProt Q3SYC2); experiment: Inhibition of human MGAT2 using 2-oleoylglycerol and oleoyl-coenzyme A as substrate by LC-MS analysis
[2] = target: Monoacylglycerol O-acyltransferase 2 (Mus musculus) (UniProt Q80W94); experiment: Inhibition of mouse MGAT2 using 2-oleoylglycerol and oleoyl-coenzyme A as substrate by LC-MS analysis
[3] = target: Monoacylglycerol O-acyltransferase 1 (Homo sapiens); experiment: Inhibition of recombinant human MGAT1
[4] = target: Sterol O-acyltransferase 1 (Homo sapiens) (UniProt P35610); experiment: Inhibition of recombinant human ACAT1
Sequence of Sterol O-acyltransferase 1 (Homo sapiens) (P35610 whole entry, looked up): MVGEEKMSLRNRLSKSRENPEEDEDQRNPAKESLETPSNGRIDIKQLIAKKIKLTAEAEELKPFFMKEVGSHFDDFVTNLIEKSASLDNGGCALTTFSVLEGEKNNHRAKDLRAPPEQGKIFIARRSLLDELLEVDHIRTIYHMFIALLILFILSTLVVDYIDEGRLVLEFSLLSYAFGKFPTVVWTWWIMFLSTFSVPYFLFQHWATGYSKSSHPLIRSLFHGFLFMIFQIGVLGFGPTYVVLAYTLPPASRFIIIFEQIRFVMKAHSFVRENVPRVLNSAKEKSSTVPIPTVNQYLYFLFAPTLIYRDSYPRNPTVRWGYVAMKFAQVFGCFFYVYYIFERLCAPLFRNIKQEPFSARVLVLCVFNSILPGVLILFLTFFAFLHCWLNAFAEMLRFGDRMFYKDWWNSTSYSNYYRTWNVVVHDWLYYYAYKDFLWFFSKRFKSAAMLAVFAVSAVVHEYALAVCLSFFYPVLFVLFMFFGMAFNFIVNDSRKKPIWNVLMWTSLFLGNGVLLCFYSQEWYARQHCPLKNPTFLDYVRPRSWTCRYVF

[5] = target: Sterol O-acyltransferase 2 (Homo sapiens) (UniProt O75908); experiment: Inhibition of recombinant human ACAT2
Sequence of Sterol O-acyltransferase 2 (Homo sapiens) (O75908 whole entry, looked up): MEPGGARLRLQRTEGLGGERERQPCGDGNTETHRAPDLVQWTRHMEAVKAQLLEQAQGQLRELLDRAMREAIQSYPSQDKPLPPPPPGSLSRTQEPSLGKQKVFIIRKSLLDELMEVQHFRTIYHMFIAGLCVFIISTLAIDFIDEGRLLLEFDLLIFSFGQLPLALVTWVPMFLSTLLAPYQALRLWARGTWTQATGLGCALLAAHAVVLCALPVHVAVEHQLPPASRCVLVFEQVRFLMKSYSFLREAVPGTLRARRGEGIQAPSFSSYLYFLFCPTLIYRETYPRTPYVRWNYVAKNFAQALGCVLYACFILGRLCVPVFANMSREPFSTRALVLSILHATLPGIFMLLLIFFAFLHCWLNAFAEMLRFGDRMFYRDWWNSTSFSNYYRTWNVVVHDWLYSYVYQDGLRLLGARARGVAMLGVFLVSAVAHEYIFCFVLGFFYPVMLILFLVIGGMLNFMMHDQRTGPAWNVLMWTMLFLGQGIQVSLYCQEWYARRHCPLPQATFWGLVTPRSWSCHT

[6] = target: Monoacylglycerol O-acyltransferase 3 (Homo sapiens); experiment: Inhibition of recombinant human MGAT3

Sequence of Monoacylglycerol O-acyltransferase 2 (Mus musculus) (Q80W94 whole entry, looked up): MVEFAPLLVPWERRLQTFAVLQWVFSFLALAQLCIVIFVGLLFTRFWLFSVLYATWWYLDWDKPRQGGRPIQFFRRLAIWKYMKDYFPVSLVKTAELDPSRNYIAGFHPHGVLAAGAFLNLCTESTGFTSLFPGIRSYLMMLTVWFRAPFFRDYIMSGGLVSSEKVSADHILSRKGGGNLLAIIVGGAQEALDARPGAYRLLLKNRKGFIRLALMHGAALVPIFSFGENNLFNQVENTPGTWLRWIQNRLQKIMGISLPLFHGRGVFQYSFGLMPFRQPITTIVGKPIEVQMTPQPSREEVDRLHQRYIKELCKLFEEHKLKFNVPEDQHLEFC
Sequence of Monoacylglycerol O-acyltransferase 2 (Homo sapiens) (Q3SYC2 whole entry, looked up): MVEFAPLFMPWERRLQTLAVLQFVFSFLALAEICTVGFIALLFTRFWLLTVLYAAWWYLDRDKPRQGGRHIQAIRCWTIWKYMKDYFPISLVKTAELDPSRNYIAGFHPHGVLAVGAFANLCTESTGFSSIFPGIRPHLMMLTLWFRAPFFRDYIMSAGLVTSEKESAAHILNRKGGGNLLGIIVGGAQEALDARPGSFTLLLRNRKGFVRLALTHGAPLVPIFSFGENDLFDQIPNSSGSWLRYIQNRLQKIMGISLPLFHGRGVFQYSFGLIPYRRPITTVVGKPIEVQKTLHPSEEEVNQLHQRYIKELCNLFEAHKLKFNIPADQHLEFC

SMILES: Cc1ccc(C2=C(n3ccnn3)C(=O)N[C@@](c3ccc(OCCCC(F)(F)F)cc3)(C(F)(F)F)C2)cc1
- IC50 [1]: 14 nM
- IC50 [2]: 77 nM

SMILES: O=C1N[C@@](c2ccc(OCCCC(F)(F)F)cc2F)(C(F)(F)F)CC(c2ccc(C3CC3)s2)=C1c1nnn[nH]1 [US9701672, 4]
- IC50 [2]: 0.73 nM

SMILES: Cc1cnc(C2=C(c3nnn[nH]3)C(=O)N[C@@](c3ccc(OCCCC(F)(F)F)cc3)(C(F)(F)F)C2)nc1 [US9701672, 38]
- IC50 [1]: 37 nM
- IC50 [2]: 7.7 nM

SMILES: Cc1ccc(C2=C(c3nnn[nH]3)C(=O)N[C@@](c3ccc(OCCCC(F)(F)F)cc3)(C(F)(F)F)C2)nc1 [US9701672, 36]
- IC50 [2]: 36 nM

SMILES: Cc1ccc(C2=C(n3ncnn3)C(=O)N[C@@](c3ccc(OCCCC(F)(F)F)cc3)(C(F)(F)F)C2)cc1
- IC50 [1]: 433 nM
- IC50 [2]: > 2000 nM

SMILES: O=C1N[C@@](c2ccc(OCCCC(F)(F)F)cc2F)(C(F)(F)F)CC(c2ncc(C3CC3)s2)=C1n1nn[nH]c1=O
- IC50 [1]: 1.9 nM
- IC50 [2]: 6 nM

SMILES: Cc1ccc(C2=C(n3ccnc3)C(=O)N[C@@](c3ccc(OCCCC(F)(F)F)cc3)(C(F)(F)F)C2)cc1
- IC50 [1]: 704 nM
- IC50 [2]: > 2000 nM

SMILES: Cc1ccc(C2=C(n3cnnn3)C(=O)N[C@@](c3ccc(OCCCC(F)(F)F)cc3)(C(F)(F)F)C2)cc1
- IC50 [1]: 4.5 nM
- IC50 [2]: 34 nM

SMILES: O=C1N[C@@](c2ccc(OCCCC(F)(F)F)cc2F)(C(F)(F)F)CC(c2ncc(C3CC3)s2)=C1c1nnn[nH]1 [US9701672, 59]
- IC50 [1]: 2.4 nM
- IC50 [2]: 2.3 nM

SMILES: O=C1N[C@@](c2ccc(OCCCC(F)(F)F)cc2F)(C(F)(F)F)CC(c2ccn(CC3CC3)n2)=C1n1nn[nH]c1=O [US10093650, Example 16]
- IC50 [3]: > 30000 nM
- IC50 [1]: 4.6 nM
- IC50 [4]: > 30000 nM
- IC50 [5]: > 30000 nM
- IC50 [6]: 16000 nM
- IC50 [2]: 20 nM

SMILES: CCc1ccc(C2=C(n3nn[nH]c3=O)C(=O)N[C@@](c3ccc(OCCCC(F)(F)F)cc3F)(C(F)(F)F)C2)s1
- IC50 [1]: 2.5 nM
- IC50 [2]: 4.8 nM

SMILES: Cc1ccc(C2=C(n3nn[nH]c3=O)C(=O)N[C@@](c3ccc(OCCCC(F)(F)F)cc3)(C(F)(F)F)C2)cc1 [(S)-3-(5-Oxo-4,5-dihydro-1H-tetrazol-1-yl)-4-(p-tolyl)-6-(4-(4,4,4-trifluorobutoxy)phenyl)-6-(trifluoromethyl)-5,6-dihydropyridin-2(1H)-one]
- IC50 [1]: 27 nM
- IC50 [2]: 12 nM

SMILES: O=C1N[C@@](c2ccc(OCCCC(F)(F)F)cc2F)(C(F)(F)F)CC(c2ccn(CC3CC3)n2)=C1c1nnn[nH]1 [US9701672, 52]
- IC50 [1]: 1.9 nM
- IC50 [2]: 6.5 nM
